Test results taken from patent US6780872B2, “Tricyclic dihydropyrazolone and tricyclic dihydroisoxazolone potassium channel openers” (Abbott Laboratories, priority 2000, dated 2004).

System: guinea-pig urinary bladder (GPB) cells
Assay: Membrane hyperpolarization (MHP) assay, DiBAC(4)3 dye, FLIPR
Type: cell-based
Details: Cavia porcellus; for EC50: membrane hyperpolarization in GPB cells, concentration eliciting 50% of the maximal response of the test sample; for Emax: maximal steady-state hyperpolarization in GPB cells, normalized to response with 10 μM P1075 (=100%)
Description: Compounds were evaluated for potassium channel opening activity using primary cultured guinea-pig urinary bladder (GPB) cells.
For the preparation of urinary bladder smooth muscle cells, urinary bladders were removed from male guinea-pigs (Hartley, Charles River, Wilmington, Mass.) weighing 300-400 g and placed in ice-cold Ca^2+-free Krebs solution (Composition, mM: KCl, 2.7; KH2PO4, 1.5; NaCl, 75; Na2HPO4, 9.6; Na2HPO4.7H2O, 8; MgSO4, 2; glucose, 5; HEPES, 10; pH 7.4). Cells were isolated by enzymatic dissociation as previously described with minor modifications in (Klockner, U. and Isenberg, G., Pflugers Arch. 1985, 405, 329-339), hereby incorporated by reference. The bladder was cut into small sections and incubated in 5 mL of the Kreb's solution containing 1 mg/mL collagenase (Sigma, St. Louis, Mo.) and 0.2 mg/mL pronase (Calbiochem, La Jolla, Calif.) with continuous stirring in a cell incubator for 30 minutes. The mixture was then centrifuged at 1300×g for 5 minutes, and the pellet resuspended in Dulbecco's PBS (GIBCO, Gaithersburg, Md.) and recentrifuged to remove residual enzyme. The cell pellet was resuspended in 5 mL growth media (composition: Dulbecco's modified Eagle's medium supplemented with 10% fetal bovine serum, 100 units/mL penicillin, 100 units/mL streptomycin and […] amphotericin B) and further dissociated by pipetting the suspension through a flame-polished Pasteur pipette and passing it through a polypropylene mesh membrane (Spectrum, Houston, Tex.). The cell density was adjusted to 100,000 cells/mL by resuspension in growth media. Cells were plated in clear-bottomed black 96-well plates (Packard) for membrane potential studies at a density of 20,000 cells/well and maintained in a cell incubator with 90% air: 10% CO2 until confluent. Cells were confirmed to be of smooth muscle type by cytoskeletal staining using a monoclonal mouse anti human-α-smooth muscle actin (Biomeda, Foster City, Calif.).
Functional activity at potassium channels was measured by evaluating changes in membrane potential using the bis-oxonol dye DiBAC(4)3 (Molecular Probes) in a 96-well cell-based kinetic assay system, Fluorescent Imaging Plate Reader (FLIPR) (K. S. Schroeder et al., J. Biomed. Screen., v. 1 pp. 7581 (1996)), hereby incorporated by reference. DiBAC(4) is an anionic potentiometric probe which partitions between cells and extracellular solution in a membrane potential-dependent manner. With increasing membrane potential (for example, K^+ depolarization), the probe further partitions into the cell; this is measured as an increase in fluorescence due to dye interaction with intracellular lipids and proteins. Conversely, decreasing membrane potential (hyperpolarization by potassium channel openers) evokes a decrease in fluorescence.
Confluent guinea-pig urinary bladder cells cultured in black clear-bottomed 96-well plates were rinsed twice with […] assay buffer (composition, mM: HEPES, 20; NaCl, 120; KCl, 2; CaCl2, 2; MgCl2, 1; glucose, 5; pH 7.4 at 25° C.) containing 5 μM DiBAC(4) and incubated with […] of the buffer in a cell incubator for 30 minutes at 37° C. to ensure dye distribution across the membrane. After recording the baseline fluorescence for 5 minutes, the reference or test compounds, prepared at 10 times the concentration in the assay buffer, were added directly to the wells. Changes in fluorescence were monitored for an additional 25 minutes. Hyperpolarization responses were corrected for any background noise and were normalized to the response observed with 10 μM of the reference compound P1075, N″-cyano-N-(tert-pentyl)-N′-(3-pyridinyl)guanidine, which was assigned as 100%. P1075 is a potent opener of smooth muscle KATP channels (Quast et al., Mol. Pharmacol., v. 43 pp. 474-481 (1993)) and was prepared using the procedures described in (Manley, J. Med. Chem. (1992) 35, 2327-2340), hereby incorporated by reference. […]

Compound `Cn1[nH]c(=O)c2c1NC1=C(C(=O)CC1)C2c1ccc(F)c(-c2ccco2)c1` (stereo not drawn) [Example 14, 4-[4-fluoro-3-(2-furyl)phenyl]-1-methyl-1,2,4,6,7,8-hexahydrocyclopenta[b]pyrazolo[4,3-e]pyridine-3,5-dione] has an EC50 of over 10 µM.
`Cn1[nH]c(=O)c2c1NC1=C(C(=O)CCC1)C2c1ccc(F)c(Br)c1` (stereo not drawn) [Example 18, 4-(3-bromo-4-fluorophenyl)-1-methyl-4,7,8,9-tetrahydro-1H-pyrazolo[3,4-b]quinoline-3,5(2H,6H)-dione] was tested, and the Emax was 80% and the EC50 was 1.97 µM.
`Cn1[nH]c(=O)c2c1NC1=C(C(=O)CC1)C2c1ccc(F)c(C(F)(F)F)c1` (stereo not drawn) [Example 9, 4-[4-fluoro-3-(trifluoromethyl)phenyl]-1-methyl-1,2,4,6,7,8-hexahydrocyclopenta[b]pyrazolo[4,3-e]pyridine-3,5-dione] was tested, and the Emax was 89% and the EC50 was 0.68 µM.
`O=C1CCC2=C1C(c1ccc(F)c(Br)c1)c1c([nH][nH]c1=O)N2` (stereo not drawn) [Example 2, 4-(3-bromo-4-fluorophenyl)-1,2,4,6,7,8-hexahydrocyclopenta[b]pyrazolo[4,3-e]pyridine-3,5-dione] showed an Emax of 90% and an EC50 of 2.77 µM.
`O=C1CCC2=C1C(c1ccc(F)c(Br)c1)c1c([nH]n(-c3ccccc3)c1=O)N2` (stereo not drawn) [Example 20, 4-(3-bromo-4-fluorophenyl)-2-phenyl-1,2,4,6,7,8-hexahydrocyclopenta[b]pyrazolo[4,3-e]pyridine-3,5-dione] showed an Emax of 48% and an EC50 of over 10 µM.
In the case of `Cn1[nH]c(=O)c2c1NC1=C(C(=O)CC1)C2c1ccc(Cl)c([N+](=O)[O-])c1` (stereo not drawn) [Example 10, 4-(4-chloro-3-nitrophenyl)-1-methyl-1,2,4,6,7,8-hexahydrocyclopenta[b]pyrazolo[4,3-e]pyridine-3,5-dione], the Emax is reported as 90% and the EC50 is reported as 2.35 µM.
`Cn1[nH]c(=O)c2c1NC1=C(C(=O)C(C)(C)CC1)C2c1ccc(F)c(Br)c1` (stereo not drawn) [Example 22, 4-(3-bromo-4-fluorophenyl)-1,6,6-trimethyl-4,7,8,9-tetrahydro-1H-pyrazolo[3,4-b]quinoline-3,5(2H,6H)-dione] showed an Emax of 105% and an EC50 of 0.33 µM.
Work on `Cc1ccc(C2C3=C(CCC3=O)Nc3c2c(=O)[nH]n3C)cc1I` (stereo not drawn) [Example 11, 4-(3-iodo-4-methylphenyl)-1-methyl-1,2,4,6,7,8-hexahydrocyclopenta[b]pyrazolo[4,3-e]pyridine-3,5-dione] yielded an Emax of 109% and an EC50 of 0.53 µM.
With `Cn1[nH]c(=O)c2c1NC1=C(C(=O)CC1)C2c1ccc(F)c(Br)c1` (stereo not drawn) [Example 1, 4-(3-bromo-4-fluorophenyl)-1-methyl-1,2,4,6,7,8-hexahydrocyclopenta[b]pyrazolo[4,3-e]pyridine-3,5-dione] the Emax was 91% and the EC50 was 0.55 µM.
In the case of `Cn1[nH]c(=O)c2c1NC1=C(C(=O)CC1)C2c1csc([N+](=O)[O-])c1` (stereo not drawn) [Example 15, 1-methyl-4-(5-nitro-3-thienyl)-1,2,4,6,7,8-hexahydrocyclopenta[b]pyrazolo[4,3-e]pyridine-3,5-dione], the Emax is reported as 58% and the EC50 is reported as 7.7 µM.
`CCn1[nH]c(=O)c2c1NC1=C(C(=O)CC1)C2c1ccc(F)c(Br)c1` (stereo not drawn) [Example 4, 4-(3-bromo-4-fluorophenyl)-1-ethyl-1,2,4,6,7,8-hexahydrocyclopenta[b]pyrazolo[4,3-e]pyridine-3,5-dione] showed an Emax of 103% and an EC50 of 0.27 µM.
For `Cn1[nH]c(=O)c2c1NC1=C(C(=O)COC1)C2c1ccc(F)c(Br)c1` (stereo not drawn) [Example 26, 4-(3-bromo-4-fluorophenyl)-1-methyl-1,2,4,9-tetrahydropyrano[3,4-b]pyrazolo[4,3-e]pyridine-3,5(6H,8H)-dione], the Emax was 99% and the EC50 was 0.05 µM.
Work on `Cn1[nH]c(=O)c2c1NC1=C(C(=O)C(C)(C)CC1)C2c1ccc(F)c(I)c1` (stereo not drawn) [Example 23, 4-(4-fluoro-3-iodophenyl)-1,6,6-trimethyl-4,7,8,9-tetrahydro-1H-pyrazolo[3,4-b]quinoline-3,5(2H,6H)-dione] yielded an Emax of 90% and an EC50 of 0.07 µM.
For `O=C1CCC2=C1C(c1ccc(F)c(Br)c1)c1c(n(-c3ccccn3)[nH]c1=O)N2` (stereo not drawn) [Example 6, 4-(3-bromo-4-fluorophenyl)-1-(2-pyridinyl)-1,2,4,6,7,8-hexahydrocyclopenta[b]pyrazolo[4,3-e]pyridine-3,5-dione], the EC50 was over 10 µM.
`Cn1[nH]c(=O)c2c1NC1=C(C(=O)OC1)C2c1ccc(F)c(Br)c1` (stereo not drawn) [Example 32, 4-(3-bromo-4-fluorophenyl)-1-methyl-4,8-dihydro-1H-furo[3,4-b]pyrazolo[4,3-e]pyridine-3,5(2H,7H)-dione] showed an Emax of 73% and an EC50 of 0.52 µM.
Work on `Cn1[nH]c(=O)c2c1NC1=C(C(=O)CC1)C2c1ccc2nonc2c1` (stereo not drawn) [Example 16, 4-(2,1,3-benzoxadiazol-5-yl)-1-methyl-1,2,4,6,7,8-hexahydrocyclopenta[b]pyrazolo[4,3-e]pyridine-3,5-dione] yielded an EC50 of over 10 µM.
In the case of `Cc1ccc(C2C3=C(CCC3=O)Nc3c2c(=O)[nH]n3C)cc1Br` (stereo not drawn) [Example 8, 4-(3-bromo-4-methylphenyl)-1-methyl-1,2,4,6,7,8-hexahydrocyclopenta[b]pyrazolo[4,3-e]pyridine-3,5-dione], the Emax is reported as 83% and the EC50 is reported as 0.48 µM.
Compound `Cn1[nH]c(=O)c2c1NC1=C(C(=O)CC1)C2c1ccc(F)c(I)c1` (stereo not drawn) [Example 12, 4-(4-fluoro-3-iodophenyl)-1-methyl-1,2,4,6,7,8-hexahydrocyclopenta[b]pyrazolo[4,3-e]pyridine-3,5-dione] has an Emax of 101% and an EC50 of 0.32 µM.
With `CC(C)(C)n1[nH]c(=O)c2c1NC1=C(C(=O)CC1)C2c1ccc(F)c(Br)c1` (stereo not drawn) [Example 5, 4-(3-bromo-4-fluorophenyl)-1-tert-butyl-1,2,4,6,7,8-hexahydrocyclopenta[b]pyrazolo[4,3-e]pyridine-3,5-dione] the EC50 was over 10 µM.
`O=C1CCCC2=C1C(c1ccc(F)c(Br)c1)c1c([nH][nH]c1=O)N2` (stereo not drawn) [Example 3, 4-(3-bromo-4-fluorophenyl)-4,7,8,9-tetrahydro-1H-pyrazolo[3,4-b]quinoline-3,5(2H,6H)-dione] was tested, and the Emax was 82% and the EC50 was 1.72 µM.
For `Cn1[nH]c(=O)c2c1NC1=C(C2c2ccc(F)c(Br)c2)S(=O)(=O)CC1` (stereo not drawn) [Example 21, 4-(3-bromo-4-fluorophenyl)-1-methyl-1,2,4,6,7,8-hexahydro-3H-pyrazolo[3,4-b]thieno[2,3-e]pyridin-3-one 5,5-dioxide], the EC50 was over 10 µM.
`Cn1[nH]c(=O)c2c1NC1=C(C(=O)CC1)C2c1ccc2nsnc2c1` (stereo not drawn) [Example 17, 4-(2,1,3-benzothiadiazol-5-yl)-1-methyl-1,2,4,6,7,8-hexahydrocyclopenta[b]pyrazolo[4,3-e]pyridine-3,5-dione] showed an EC50 of over 10 µM.
`Cn1[nH]c(=O)c2c1NC1=C(C(=O)C(C)(C)CC1)C2c1ccc(F)c(-c2ccco2)c1` (stereo not drawn) [Example 25, 4-[4-fluoro-3-(2-furyl)phenyl]-1,6,6-trimethyl-4,7,8,9-tetrahydro-1H-pyrazolo[3,4-b]quinoline-3,5(2H,6H)-dione] gave an Emax of 78% and an EC50 of 3.2 µM.
Compound `Cn1[nH]c(=O)c2c1NC1=C(C(=O)CC1)C2c1ccc(OC(F)(F)F)cc1` (stereo not drawn) [Example 7, 1-methyl-4-[4-(trifluoromethoxy)phenyl]-1,2,4,6,7,8-hexahydrocyclopenta[b]pyrazolo[4,3-e]pyridine-3,5-dione] has an EC50 of over 10 µM.
Work on `Cn1[nH]c2c(c1=O)C(c1ccc(F)c(Br)c1)C1=C(CCC1=O)N2` (stereo not drawn) [Example 19, 4-(3-bromo-4-fluorophenyl)-2-methyl-1,2,4,6,7,8-hexahydrocyclopenta[b]pyrazolo[4,3-e]pyridine-3,5-dione] yielded an EC50 of over 10 µM.
